Results reported in patent US20240008478A1, “Composition and Methods for Managing and Controlling Lepidopteran Insects” (priority 2022, published 2024).
Where a name gives a salt, the structure may show the parent alone.

Legend:
H. zea = settings: hollow fiber formulation; 12-ha maize field; cited from earlier work
moths = assay: Brazilian cotton field trial, compared with grower's standard methomyl cover spray (dead moth counts); type: in vivo, noctuid moths; settings: methomyl alone sprayed over the entire crop, grower's standard rate; for 5 days after the application
Protocol: Initial work on products of the present disclosure consisted of a blend of oleoresins designed to mimic the attractive volatiles used by adult noctuids to identify sugar-rich sources of floral nectar. This blend also contains a number of sugar-based and proteic phagostimulants (feeding stimulants) to encourage the target insects to feed on the formulation to full engorgement. When a pesticide is added to this product, these components encourage megadose intake of the incorporated killing agent. This minimizes the risk of sub-lethal exposure, a contributing factor to the development of resistance. To further reduce the risk of resistance, the product may be designed as a tank mix to be blended with a small dose of the user's pesticide of choice just prior to application. This characteristic makes the product an extremely adaptable pest management solution and lends itself well to pesticide rotation programs. The product was originally tested in cotton and soybean fields in South America, where noctuid pests pose a significant economic threat to multiple crops. […]

Row | SMILES | rate of mating (H. zea) | dead moths recovered (moths)
1 | CCCC/C=C\CCCCCCCCOC=O [(Z)-9-tetradecenyl formate] | cut in half | 
2 | CNC(=O)ON=C(C)SC [methomyl] |  | no or very few dead moths
